Measured values reported in patent US20150065526A1, “OVERCOMING ACQUIRED RESISTANCE TO CHEMOTHERAPY TREATMENTS THROUGH SUPPRESSION OF STAT3” (EMORY UNIVERSITY, priority 2013, published 2015).

How the values were obtained:
[1] = test system: Tu212 head and neck cancer xenografts; assay: Tu212 head and neck cancer xenografts in mice; format: in vivo; details: for Xenograft tumor growth, Tu212: erlotinib 40 mg/kg/d, niclosamide 20 mg/kg/d, two weeks
Method: Each group included 8 mice. Tumor volume was measured once every 2 days. After 14 days, the mice were sacrificed and the tumors were removed and analyzed. Representative tumor pictures were taken. B, Active caspase 3 and Ki 67 were analyzed in tumor tissues at the end of experiments by IHC staining and quantified. C, Expression levels of pEGFR, pSTAT3, Bcl2 and Bcl-XL in tumor tissues from various treatment groups were analyzed by Western blot.
First, head and neck cancer xenografts were generated using Tu212 cells.

[2] = test system: PTPMeg2, pSTAT3, Bcl2, Bcl-XL, JAK2, c-Src in HCC827 cells; assay: Western blot of HCC827 cells treated with erlotinib; format: cell-based, human
[3] = test system: HCC827/ER lung cancer xenografts; details: niclosamide 20 mg/kg/d
Method: (§1) Each group includes 8 mice. Tumor volume was measured once every 2 days. After 32 days, the mice were sacrificed and the tumors were removed and analyzed. Representative tumor pictures were taken. B, active caspase-3 was analyzed in tumor tissues at the end of experiments by IHC staining and quantified as described in Materials and Methods. C, expression levels of pEGFR, pSTAT3, Bcl2, and Bcl-XL from tumor tissues in various treatment groups were analyzed by Western blot analysis.
(§2) The control group was treated with 0.5% DMSO vehicle.

[4] = test system: STAT3 phosphorylation, Bcl2/Bcl-XL in Tu212 and Tu686 cells; assay: Western blot of Tu212 and Tu686 head and neck cancer cells; format: cell-based; details: erlotinib plus increasing concentrations of niclosamide, 48 h
STAT3 = STAT3 (Homo sapiens, UniProt P40763); details: cited from earlier work
[5] = test system: HCC827 lung cancer xenografts; details: niclosamide 20 mg/kg/d
Method: as §1, §2

STAT3, sequence (P40763 whole entry): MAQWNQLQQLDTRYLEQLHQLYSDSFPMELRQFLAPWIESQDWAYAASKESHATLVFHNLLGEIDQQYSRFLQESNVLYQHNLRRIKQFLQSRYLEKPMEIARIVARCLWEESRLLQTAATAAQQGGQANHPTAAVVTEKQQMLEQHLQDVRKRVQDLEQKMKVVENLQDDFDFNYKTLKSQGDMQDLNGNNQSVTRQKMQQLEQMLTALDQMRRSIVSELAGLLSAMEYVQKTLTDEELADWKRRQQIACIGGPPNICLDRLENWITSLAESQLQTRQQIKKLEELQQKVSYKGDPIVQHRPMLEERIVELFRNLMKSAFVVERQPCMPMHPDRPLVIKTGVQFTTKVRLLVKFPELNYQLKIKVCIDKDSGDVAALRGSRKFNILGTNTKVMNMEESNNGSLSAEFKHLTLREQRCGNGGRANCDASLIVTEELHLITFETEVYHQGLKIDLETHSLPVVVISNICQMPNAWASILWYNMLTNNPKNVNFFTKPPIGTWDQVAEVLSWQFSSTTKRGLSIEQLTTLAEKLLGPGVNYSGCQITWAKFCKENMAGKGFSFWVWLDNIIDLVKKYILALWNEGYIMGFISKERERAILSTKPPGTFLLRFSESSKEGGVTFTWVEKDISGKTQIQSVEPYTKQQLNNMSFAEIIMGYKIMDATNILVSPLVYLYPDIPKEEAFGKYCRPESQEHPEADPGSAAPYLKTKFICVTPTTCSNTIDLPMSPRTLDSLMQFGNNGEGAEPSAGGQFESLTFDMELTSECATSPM

| Structure (SMILES) | Xenograft tumor growth, Tu212 [1] | JAK2 and c-Src phosphorylation [2] | PTPMeg2 expression [2] | STAT3/Bcl2/Bcl-XL pathway status [2] | Tumor volume, HCC827/ER xenografts ([3]; erlotinib 40 mg/kg/d, 32 days) | Erlotinib-stimulated STAT3 phosphorylation, Bcl2 and Bcl-XL in tumor tissue lysates, Tu212 ([1]; three mice in each treatment group) | Erlotinib-induced STAT3 phosphorylation and Bcl2/Bcl-XL (Western blot) [4] | Activation of upstream proteins JAK2 and Src (STAT3) | STAT3 Tyr705 phosphorylation and transcriptional activity (STAT3) | STAT3 phosphorylation, Bcl2 and Bcl-XL in tumor lysates (Western blot), HCC827/ER [3] | STAT3 phosphorylation, Bcl2 and Bcl-XL in tumor lysates (Western blot), HCC827 [5] |
| --- | --- | --- | --- | --- | --- | --- | --- | --- | --- | --- | --- |
| C#Cc1cccc(Nc2ncnc3cc(OCCOC)c(OCCOC)cc23)c1 [erlotinib, N-(3-ethynylphenyl)-6,7-bis(2-methoxyethoxy)quinazolin-4-amine] | modest efficacy | inhibited JAK2 and c-Src phosphorylation | downregulates PTPMeg2 | activation of the STAT3/Bcl2/Bcl-XL pathway | tumor volumes comparable with those in the vehicle-treated control group |  |  |  |  |  |  |
| O=C(Nc1ccc([N+](=O)[O-])cc1Cl)c1cc(Cl)ccc1O [niclosamide] | modest efficacy |  |  |  |  | blocks erlotinib-stimulated STAT3 phosphorylation leading to decreased Bcl2 and Bcl-XL levels | inhibited erlotinib-induced STAT3 phosphorylation and downregulated Bcl2/Bcl-XL in a dose-dependent manner | no obvious inhibitory effect | can inhibit Tyr705 site phosphorylation as well as transcriptional activity of STAT3 | blocks STAT3 phosphorylation in association with reduced Bcl2 and Bcl-XL | blocks STAT3 phosphorylation in association with reduced Bcl2 and Bcl-XL |
